Read-outs that look alike come from different tables or passages of the source.
Legend:
[1] = in vitro; conditions: African green monkey
[2] = system: P-388; assay: Cytotoxic activity IC50, P-388; conditions: Mus musculus, P388, read-out: CYTOTOXIC ACTIVITIY IC50 (μM) P-388
[3] = system: A-549; assay: Cytotoxic activity IC50, A-549; conditions: Homo sapiens, A549, read-out: CYTOTOXIC ACTIVITIY IC50 (μM) A-549, A-549
[4] = system: HT-29; assay: Cytotoxic activity IC50, HT-29; conditions: Homo sapiens, HT-29, read-out: CYTOTOXIC ACTIVITIY IC50 (μM) HT-29, HT-29
[5] = system: MEL-28; assay: Cytotoxic activity IC50, MEL-28; conditions: Homo sapiens, SK-MEL-28, read-out: CYTOTOXIC ACTIVITIY IC50 (μM) MEL-28, MEL-28
[6] = system: DU-145; assay: Cytotoxic activity IC50, DU-145; conditions: Homo sapiens, DU-145, read-out: CYTOTOXIC ACTIVITIY IC50 (μM) DU-145, DU-145
[7] = system: P-388
[8] = system: A-549
[9] = system: HT-29
[10] = system: MEL-28
[11] = system: DU-145

Compound | IC50 [1] | IC50 [3] | IC50 [4] | IC50 [5] | IC50 [7] | IC50 [8] | IC50 [9] | IC50 [10] | IC50 [11] | other results
COC1=C(C)C(=O)C2=C(C1=O)[C@H](CNC(=O)C(C)N)N1C(C2)[C@H]2c3c(cc(C)c(OC)c3O)C[C@@H]([C@@H]1C#N)N2C (some centres unmarked) | 23 nM |  |  |  |  |  |  |  |  | 
C=CCOc1c(C)c2c(c3c1CC1[C@H]4c5c(cc(C)c(OC)c5O)C[C@@H]([C@H](C#N)N1[C@H]3CNC(=O)OCC(Cl)(Cl)Cl)N4C)OCO2 (some centres unmarked) | 14 nM | 0.014 µM | 0.014 µM | 0.014 µM |  |  |  |  |  | IC50 [2]: 0.014 µM
C=CCOc1c(C)c2c(c3c1CC1[C@H]4c5c(cc(C)c(OC)c5OCOC)C[C@@H]([C@H](C#N)N1[C@H]3CNC(=O)OCC(Cl)(Cl)Cl)N4C)OCO2 (some centres unmarked) | 130 nM | 0.13 µM | 0.13 µM | 0.13 µM |  |  |  |  |  | IC50 [2]: 0.13 µM
C=CCOc1c(C)c2c(c3c1CC1[C@H]4c5c(cc(C)c(OC)c5OCOC)C[C@@H]([C@H](C#N)N1[C@H]3CN)N4C)OCO2 (some centres unmarked) | 1800 nM | 1.8 µM | 1.8 µM | 1.8 µM |  |  |  |  |  | IC50 [6]: 1.8 µM
COc1c(C)cc2c(c1O)[C@@H]1C3Cc4c(O)c(C)c5c(c4[C@H](CN4C(=O)c6ccccc6C4=O)N3[C@@H](C#N)[C@H](C2)N1C)OCO5 (some centres unmarked) | 1 nM |  |  |  |  |  |  |  |  | 
COC1=C(C)C(=O)C2=C(C1=O)[C@H](CNC(=O)C(C)N=CSNc1ccccc1)N1C(C2)[C@H]2c3c(cc(C)c(OC)c3O)C[C@@H]([C@@H]1C#N)N2C (some centres unmarked) | 18 nM |  |  |  |  |  |  |  |  | 
COC1=C(C)C(=O)C2=C3C1=NCC3N1C(C2)[C@H]2c3c(cc(C)c(OC)c3O)C[C@@H]([C@@H]1C#N)N2C (some centres unmarked) | 2170 nM | 2.17 µM | 2.17 µM | 2.17 µM |  |  |  |  |  | IC50 [2]: 2.17 µM
COCOc1c(OC)c(C)cc2c1[C@@H]1C3CC4=C(C(=O)C(OC)=C(C)C4=O)[C@H](CNC(C)=O)N3[C@@H](C#N)[C@H](C2)N1C (some centres unmarked) | 220 nM | 0.22 µM | 0.22 µM | 0.22 µM |  |  |  |  |  | IC50 [2]: 0.22 µM
COCOc1c(OC)c(C)cc2c1[C@@H]1C3CC4=C(C(=O)C(O)=C(C)C4=O)[C@H](CNC(C)=O)N3[C@@H](C#N)[C@H](C2)N1C (some centres unmarked) | > 18100 nM |  |  |  |  |  |  |  |  | 
COc1c(C)cc2c(c1O)[C@@H]1C3Cc4c(OC(C)=O)c(C)c5c(c4[C@H](CNC(=O)/C=C/c4cccc(C(F)(F)F)c4)N3[C@@H](C#N)[C@H](C2)N1C)OCO5 (some centres unmarked) |  |  |  |  | 0.1 nM | 0.1 nM | 0.1 nM | 0.1 nM | 0.1 nM | 
COc1c(C)cc2c(c1O)[C@@H]1C3Cc4c(OC(C)=O)c(C)c5c(c4[C@H](CNC(=O)[C@@H](C)NC(=O)CC(C)C)N3[C@@H](C#N)[C@H](C2)N1C)OCO5 (some centres unmarked) |  |  |  |  | 0.1 nM | 0.1 nM | 0.1 nM | 0.1 nM | 0.1 nM | 
COc1c(C)cc2c(c1O)[C@@H]1C3Cc4c(OC(C)=O)c(C)c5c(c4[C@H](CNC(=O)[C@H](C)NC(=O)C(F)(F)F)N3[C@@H](C#N)[C@H](C2)N1C)OCO5 (some centres unmarked) |  |  |  |  | 0.1 nM | 0.1 nM | 0.1 nM | 0.1 nM | 0.1 nM | 
C/C=C(\OC(C)=O)C1=C(C2=COCO2)[C@H](CNC(=O)/C=C/c2ccccc2)N2C(C1)[C@H]1c3c(cc(C)c(OC)c3O)C[C@@H]([C@@H]2C#N)N1C (some centres unmarked) |  |  |  |  | 0.1 nM | 0.1 nM | 0.1 nM | 0.1 nM | 0.1 nM | 
C/C=C(\OC(C)=O)C1=C(C2=COCO2)[C@H](CNC(=O)CCC)N2C(C1)[C@H]1c3c(cc(C)c(OC)c3O)C[C@@H]([C@@H]2C#N)N1C (some centres unmarked) |  |  |  |  | 0.1 nM | 0.1 nM | 0.1 nM | 0.1 nM | 0.1 nM | 
CCCCCC(=O)N[C@@H](C)C(=O)NC[C@H]1c2c(c(OC(C)=O)c(C)c3c2OCO3)CC2[C@H]3c4c(cc(C)c(OC)c4O)C[C@@H]([C@H](C#N)N21)N3C (some centres unmarked) | 1 nM | 0.001 µM | 0.001 µM | 0.001 µM |  |  |  |  |  | IC50 [2]: 0.001 µM; IC50 [6]: 0.001 µM
CCCCCC(=O)N[C@@H](C)C(=O)NC[C@H]1c2c(c(OC(C)=O)c(C)c3c2OCO3)CC2[C@H]3c4c(cc(C)c(OC)c4O)C[C@@H]([C@H](O)N21)N3C (some centres unmarked) | 1 nM | 0.001 µM | 0.001 µM | 0.001 µM |  |  |  |  |  | IC50 [2]: 0.001 µM; IC50 [6]: 0.001 µM
C=CCOc1c(C)c2c(c3c1CC1[C@H]4c5c(cc(C)c(OC)c5OCOC)C[C@@H]([C@H](C#N)N1[C@H]3COC(=O)CCc1ccccc1)N4C)OCO2 (some centres unmarked) | 700 nM | 0.7 µM | 0.7 µM | 0.7 µM |  |  |  |  |  | IC50 [2]: 0.7 µM; IC50 [6]: 0.7 µM
COC1=C(C)C(=O)C2=C(C1=O)[C@H](CNC(=O)[C@H](C)NC(=O)C(F)(F)F)N1C(C2)[C@H]2c3c(cc(C)c(OC)c3O)C[C@@H]([C@@H]1C#N)N2C (some centres unmarked) | 100 nM | 0.01 µM | 0.01 µM | 0.01 µM |  |  |  |  |  | IC50 [2]: 0.01 µM; IC50 [6]: 0.01 µM
COc1c(C)cc2c(c1O)[C@@H]1C3Cc4c(OC(C)=O)c(C)c5c(c4[C@H](CNC(=O)[C@H](C)NC(=O)C(F)(F)F)N3[C@@H](O)[C@H](C2)N1C)OCO5 (some centres unmarked) [drawing 110] |  |  |  |  | 0.1 nM | 0.1 nM | 0.1 nM | 0.1 nM | 0.1 nM | 
COc1c(C)cc2c(c1O)[C@@H]1C3Cc4c(OC(C)=O)c(C)c5c(c4[C@H](CNC(=O)/C=C/c4ccccc4)N3[C@@H](O)[C@H](C2)N1C)OCO5 (some centres unmarked) [drawing 113] |  |  |  |  | 0.1 nM | 0.1 nM | 0.1 nM | 0.1 nM | 0.1 nM | 
CCCCCC(=O)NC[C@H]1c2c(c(OC(C)=O)c(C)c3c2OCO3)CC2[C@H]3c4c(cc(C)c(OC)c4O)C[C@@H]([C@H](C#N)N21)N3C (some centres unmarked) [drawing 120] | 0.1 nM |  |  |  | 0.1 nM | 0.1 nM | 0.1 nM | 0.1 nM | 0.1 nM | 
COc1c(C)cc2c(c1O)[C@@H]1C3Cc4c(OC(C)=O)c(C)c5c(c4[C@H](CNC(=O)CCc4ccccc4)N3[C@@H](O)[C@H](C2)N1C)OCO5 (some centres unmarked) [drawing 123] |  |  |  |  | 0.1 nM | 0.1 nM | 0.1 nM | 0.1 nM | 0.1 nM | 
CCC(=O)NC[C@H]1c2c(c(OC(C)=O)c(C)c3c2OCO3)CC2[C@H]3c4c(cc(C)c(OC)c4O)C[C@@H]([C@H](O)N21)N3C (some centres unmarked) [drawing 125] |  |  |  |  | 0.1 nM | 0.1 nM | 0.1 nM | 0.1 nM | 0.1 nM | 
COc1c(C)cc2c(c1O)[C@@H]1C3Cc4c(OC(C)=O)c(C)c5c(c4[C@H](CNC(=O)[C@H](C)NC(=O)CCc4ccccc4)N3[C@@H](O)[C@H](C2)N1C)OCO5 (some centres unmarked) [drawing 135] |  |  |  |  | 0.1 nM | 0.1 nM | 0.1 nM | 0.1 nM | 0.1 nM | 
CCC(=O)N[C@@H](C)C(=O)NC[C@H]1c2c(c(OC(C)=O)c(C)c3c2OCO3)CC2[C@H]3c4c(cc(C)c(OC)c4O)C[C@@H]([C@H](O)N21)N3C (some centres unmarked) [drawing 138] |  |  |  |  | 0.1 nM | 0.1 nM | 0.1 nM | 0.1 nM | 0.1 nM | 
CCCC(=O)OC[C@H]1c2c(c(OC(C)=O)c(C)c3c2OCO3)CC2[C@H]3c4c(cc(C)c(OC)c4OCOC)C[C@@H]([C@H](C#N)N21)N3C (some centres unmarked) [drawing 152] |  |  |  |  | 0.1 nM |  |  |  |  | IC50 ([8]; human): 0.8 nM; IC50 ([9]; human): 0.8 nM; IC50 ([10]; human): 0.8 nM; IC50 ([11]; human): 0.8 nM
CCCC(=O)OC[C@H]1c2c(c(OC(C)=O)c(C)c3c2OCO3)CC2[C@H]3c4c(cc(C)c(OC)c4O)C[C@@H]([C@H](O)N21)N3C (some centres unmarked) [drawing 156] |  |  |  |  | 0.1 nM | 0.1 nM | 0.1 nM | 0.1 nM | 0.1 nM | 
COc1c(C)cc2c(c1O)[C@@H]1C3Cc4c(OC(C)=O)c(C)c5c(c4[C@H](COC(=O)/C=C/c4cccc(C(F)(F)F)c4)N3[C@@H](O)[C@H](C2)N1C)OCO5 (some centres unmarked) [drawing 157] |  |  |  |  | 0.1 nM | 0.1 nM | 0.1 nM | 0.1 nM | 0.1 nM | 
COc1c(C)cc2c(c1O)[C@@H]1C3Cc4c(OC(C)=O)c(C)c5c(c4[C@H](COC(=O)CCc4ccccc4)N3[C@@H](O)[C@H](C2)N1C)OCO5 (some centres unmarked) [drawing 158] |  |  |  |  | 0.1 nM | 0.1 nM | 0.1 nM | 0.1 nM | 0.1 nM | 

From patent US8012975B2, “Antitumoral analogs of ET-743” (Pharma Mar, S.A., priority 2000, dated 2011)
